Measurements: patent US20100249058A1, “FEED ADDITIVE AND FEED” (IDEMITSU KOSAN CO., LTD., priority 2006, published 2010)

What was measured:
Type in all cases: cell-based
[1] = system: Staphylococcus epidermidis; experiment: Minimum inhibitory concentration (MIC) measurement; conditions: 37° C., about 20 hours, aerobic
Procedure: (§1) Minimum inhibitory concentrations (MICs) of each of the bacteria shown in Table 1 were measured for the MEL and rhamnolipids by the following procedures.
(§2) The above-mentioned bacteria were precultured in a bouillon medium for sensitivity determination (NISSUI PHARMACEUTICAL CO., LTD.). The concentrations of the bacteria in the culture solutions were adjusted to about 1.0×10^5 to 10^6 CFU/ml with physiological saline, and the bacteria were inoculated into the measurement mediums. As the measurement mediums, a medium for sensitivity measurement (NISSUI PHARMACEUTICAL CO., LTD.) was used for Staphylococcus aureus, Staphylococcus epidermidis, and Bacillus subtilis, and a blood agar medium (heart infusion medium: NISSUI PHARMACEUTICAL CO., LTD., sheep sterile defibrinated blood: Kohjin Bio Co. Ltd.) was used for Streptococcus suis and Streptococcus bovis. Culture was performed at 37° C. for about 20 hours under aerobic conditions for Staphylococcus aureus, Staphylococcus epidermidis, and Bacillus subtilis or under 5% CO2 conditions for Streptococcus suis and Streptococcus bovis. After completion of culture, the MICs were measured.
(§3) The MEL crude purified product obtained in section <1> (purity 69%) was used as MEL, and the rhamnolipid crude purified product obtained in section <2> (purity 55%) was used as rhamnolipids. Meanwhile, for the purpose of comparison, MICs of sucrose ester (sucrose manodecanoate: manufactured by SIGMA-ALDRICH Japan K.K.), mannose (manufactured by Wako Pure Chemical Industries, Ltd.), and rhamnose (manufactured by SIGMA-ALDRICH Japan K.K.) were measured.

Streptococcus suis = experiment: Minimum inhibitory concentration (MIC) measurement; conditions: blood agar medium, 37° C., about 20 hours, 5% CO2
Procedure: as §1, §2, §3

Streptococcus bovis = experiment: Minimum inhibitory concentration (MIC) measurement; conditions: blood agar medium, 37° C., about 20 hours, 5% CO2
Procedure: as §1, §2, §3

Staphylococcus aureus = experiment: Minimum inhibitory concentration (MIC) measurement; conditions: 37° C., about 20 hours, aerobic
Procedure: as §1, §2, §3

Bacillus subtilis = experiment: Minimum inhibitory concentration (MIC) measurement; conditions: 37° C., about 20 hours, aerobic
Procedure: as §1, §2, §3

[2] = system: Staphylococcus, Streptococcus, and Bacillus bacteria; experiment: Evaluation of antibiotic activities (summary over the tested bacteria); conditions: result in words
Procedure: as §1
as §2, with “Culture was performed at 37° C. for about 20 hours under aerobic conditions for Staphylococcus aureus, Staphylococcus epidermidis, and Bacillus subtilis or under 5% CO2 conditions for Streptococcus suis and Streptococcus bovis.” left out
as §3

| Molecule | Minimum inhibitory concentration (MIC) [1] | Minimum inhibitory concentration (MIC) (Streptococcus suis) | Minimum inhibitory concentration (MIC) (Streptococcus bovis) | Minimum inhibitory concentration (MIC) (Staphylococcus aureus) | Minimum inhibitory concentration (MIC) (Bacillus subtilis) | antibiotic activities [2] |
| --- | --- | --- | --- | --- | --- | --- |
| C[C@H](O)[C@H](O)[C@@H](O)[C@@H](O)C=O [Rhamnose, rhamnose] | <1600 | <1600 | <1600 | <1600 | <1600 | no antibiotic activities |
| sucrose manodecanoate [Sucrose ester] | <1600 | 800 | 800 | <1600 | 400 | – |
